Test results reported in PMC10762035, “Molecular basis of human trace amine-associated receptor 1 activation” (Nature Communications, 2024).
Positions count from the first letter of the chain named. Several values for one entry are separate records, joined by “and”; a condition that tells them apart may be missing. Identical values can stand only once. Like-named read-outs stand apart in the source and are kept apart here.

Key:
Assay type in all cases: cell-based
hTA1 b2N = target: T1, hTA1 b2N (Homo sapiens, UniProt Q96RJ0); assay: GloSensor cAMP accumulation assay, b2N construct; settings: b2N; n=2; read-out: Span ± SEM (Emax normalized to β-PEA)
T1 construct: read by me as the first 25 residues of β2AR (N); expressed in transfected cells; host or cells: HEK293T
T1 sequence (Q96RJ0 with tags, fused parts or gaps): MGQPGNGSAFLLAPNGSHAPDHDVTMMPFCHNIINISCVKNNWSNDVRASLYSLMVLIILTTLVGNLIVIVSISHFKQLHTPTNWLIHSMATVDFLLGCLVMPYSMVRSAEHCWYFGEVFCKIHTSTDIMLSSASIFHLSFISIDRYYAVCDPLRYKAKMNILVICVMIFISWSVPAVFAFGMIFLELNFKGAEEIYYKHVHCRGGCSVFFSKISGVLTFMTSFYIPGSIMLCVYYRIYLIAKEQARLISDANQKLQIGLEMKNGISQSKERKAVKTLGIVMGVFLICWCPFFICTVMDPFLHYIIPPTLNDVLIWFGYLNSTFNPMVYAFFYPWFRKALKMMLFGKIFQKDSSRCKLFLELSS

hTA1 V184P = target: T2, hTA1 V184P (Homo sapiens, UniProt Q96RJ0, V184P); assay: GloSensor cAMP accumulation assay, V184P mutant; settings: for cAMP accumulation response, single replicate values (source data, Supplementary Figure 5): hTA1 V184P (N=2), log[Compound]
T2 construct: expressed in transfected cells; host or cells: HEK293T
T2 sequence (Q96RJ0 1-339 V184P): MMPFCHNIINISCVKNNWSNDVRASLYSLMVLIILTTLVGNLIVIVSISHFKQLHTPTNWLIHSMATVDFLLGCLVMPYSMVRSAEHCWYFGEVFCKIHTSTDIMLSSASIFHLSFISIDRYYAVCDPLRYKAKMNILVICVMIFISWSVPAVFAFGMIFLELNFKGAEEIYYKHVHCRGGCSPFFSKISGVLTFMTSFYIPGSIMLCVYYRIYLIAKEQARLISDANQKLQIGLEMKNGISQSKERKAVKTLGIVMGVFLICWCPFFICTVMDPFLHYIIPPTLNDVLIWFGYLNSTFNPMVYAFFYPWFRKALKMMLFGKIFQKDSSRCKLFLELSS

hTA1 C88S = target: T3, hTA1 C88S (Homo sapiens, UniProt Q96RJ0, C88S); assay: GloSensor cAMP accumulation assay, C88S mutant; settings: C88S
T3 construct: expressed in transfected cells; host or cells: HEK293T
T3 sequence (Q96RJ0 1-339 C88S): T2 sequence (Q96RJ0 1-339 V184P) with C88S, P184V

hTA1 C13S = target: T4, hTA1 C13S (Homo sapiens, UniProt Q96RJ0, C13S); assay: GloSensor cAMP accumulation assay, C13S mutant
T4 construct: expressed in transfected cells; host or cells: HEK293T
T4 sequence (Q96RJ0 1-339 C13S): T2 sequence (Q96RJ0 1-339 V184P) with C13S, P184V

hTA1 I290Y = target: T5, hTA1 I290Y (Homo sapiens, UniProt Q96RJ0, I290Y); assay: GloSensor cAMP accumulation assay, I290Y mutant; settings: for cAMP accumulation response, normalized (concentration-response source data, single replicate values): hTA1 I290Y (N=3), log[Compound];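 as to cAMP accumulation response, normalized (concentration-response source data, single replicate values): normalized to the maximum response of β-PEA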
T5 construct: expressed in transfected cells; host or cells: HEK293T
T5 sequence (Q96RJ0 1-339 I290Y): T2 sequence (Q96RJ0 1-339 V184P) with P184V, I290Y

hTA1 F195T = target: T6, hTA1 F195T (Homo sapiens, UniProt Q96RJ0, F195T); assay: GloSensor cAMP accumulation assay, F195T mutant;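 also: cells transiently co-expressing HA-FLAG-tagged hTA1 and the GloSensor cAMP biosensor, luminescence read 30 min after agonist addition at room temperature, concentration-response fitted by nonlinear regression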
T6 construct: expressed in transfected cells; host or cells: HEK293T
T6 sequence (Q96RJ0 1-339 F195T): T2 sequence (Q96RJ0 1-339 V184P) with P184V, F195T

[1] = hTA1 V184P mutant minus WT average

CCc1[nH]nc(C(=O)Nc2ccc([C@H]3CNCCO3)cc2)c1C [ralmitaront]
Emax (hTA1 b2N): 82.5 ± 4.39%
reduction in potency vs wild type (hTA1 V184P; V184P): 2.5 fold
Emax (hTA1 V184P; V184P, n=2, read-out: Span ± SEM (Emax normalized to β-PEA)): 48.73 ± 0.14%
cAMP accumulation response, single replicate values (source data, Supplementary Figure 5) (hTA1 V184P; M = -5): 56.1002 and 44.9467 and 51.6388 and 50.9599 and 51.6929 and 37.8383
cAMP accumulation response, single replicate values (source data, Supplementary Figure 5) (hTA1 V184P; M = -5.522): 38.6425 and 44.6557 and 34.0841 and 47.4046 and 55.1382 and 34.8694
cAMP accumulation response, single replicate values (source data, Supplementary Figure 5) (hTA1 V184P; M = -6): 32.8233 and 40.4853 and 30.6896 and 36.9953 and 42.3832 and 37.3618
cAMP accumulation response, single replicate values (source data, Supplementary Figure 5) (hTA1 V184P; M = -6.522): 24.4824 and 25.4523 and 22.4457 and 22.8108 and 28.9684 and 21.7112
cAMP accumulation response, single replicate values (source data, Supplementary Figure 5) (hTA1 V184P; M = -7): 14.7837 and 10.7102 and 14.2987 and 13.3178 and 19.622 and 12.4015
cAMP accumulation response, single replicate values (source data, Supplementary Figure 5) (hTA1 V184P; M = -7.522): 3.727 and 4.406 and 3.242 and 4.485 and 6.5 and 5.731
cAMP accumulation response, single replicate values (source data, Supplementary Figure 5) (hTA1 V184P; M = -8): 0.5265 and 1.302 and 1.5934 and 2.432 and 2.322 and 1.296
cAMP accumulation response, single replicate values (source data, Supplementary Figure 5) (hTA1 V184P; M = -8.522): 0.2356 and -0.3463 and -0.05538 and 1.699 and 1.076 and 0.2329
cAMP accumulation response, single replicate values (source data, Supplementary Figure 5) (hTA1 V184P; M = -9): 0.3326 and -0.2494 and -1.025 and -0.1703 and -0.2803 and -0.5368
cAMP accumulation response, single replicate values (source data, Supplementary Figure 5) (hTA1 V184P; M = -9.522): -0.8313 and -0.9283 and -1.316 and -0.5002 and -0.3902 and -0.3169
cAMP accumulation response, single replicate values (source data, Supplementary Figure 5) (hTA1 V184P; M = -10): -1.122 (2×) and -0.3463 and -0.94 and -0.3902 and -1.3432
cAMP accumulation response, single replicate values (source data, Supplementary Figure 5) (hTA1 V184P; M = -10.522): -0.9283 and -1.025 and -1.219 and -0.9034 and -1.123 and -1.673
cAMP accumulation response, single replicate values (source data, Supplementary Figure 5) (hTA1 V184P; M = -11): -0.9283 and -1.607 (2×) and -0.3902 (2×) and -0.1703
cAMP accumulation response, single replicate values (source data, Supplementary Figure 5) (hTA1 V184P; M = -11.522): -1.607 (2×) and -1.898 and 0.746 and -0.02371 and -0.5002
cAMP accumulation response, single replicate values (source data, Supplementary Figure 5) (hTA1 V184P; M = -12): -1.607 and -1.219 and -1.51 and -0.6835 and 0.4894 and -0.5735
cAMP accumulation response, single replicate values (source data, Supplementary Figure 5) (hTA1 V184P; M = -12.522): -0.7343 and -1.4132 and -1.025 and -0.6835 and -0.7568 and -1.087
ΔEmax values (each mutant value - WT average), Mean (hTA1 V184P; [1]): 8.48 and 8.751
ΔpEC50 values (each mutant value - WT average), Mean (hTA1 V184P; [1]): -0.4311 and -0.3552
Emax values, Mean (hTA1 V184P; hTA1 V184P mutant, β-PEA set to 100, each grid row a separate experiment, 3 replicates): 48.8655
Emax (hTA1 V184P; hTA1 V184P mutant, β-PEA set to 100, each grid row a separate experiment, 3 replicates, read-out: Emax values (Mean)): 48.6%
Emax values (hTA1 C88S; Mean of fit per experiment): 92.8994 and 62.9388
Emax (hTA1 C88S; n=2, read-out: Span ± SEM (Emax normalized to β-PEA)): 77.9 ± 15%
Emax (hTA1 C88S; relative to β-PEA, read-out: Emax): 77.9%
ΔpEC50 values (each mutant value - WT average) (hTA1 C13S; C13S): -0.1563 and -0.05083
Emax values (hTA1 C13S; C13S, Mean of fit per experiment): 28.9629
Emax (hTA1 C13S; C13S, Mean of fit per experiment, read-out: Emax values): 23.8%
Emax (hTA1 C13S; C13S, n=2, read-out: Span ± SEM (Emax normalized to β-PEA)): 26.4 ± 2.6%
C13S - Normalized Luminescence Counts (N=2) (hTA1 C13S; log[Compound], M = -5, single wells): 24.7419 and 34.2578 and 19.4511 and 28.8102 and 35.1294 and 22.0805
Emax (hTA1 I290Y; I290Y, read-out: Span ± SEM (Emax normalized to β-PEA)): 17.6 ± 2.61%
Emax values, Mean (hTA1 I290Y; I290Y, single experiments (3 replicates each), β-PEA = 100): 14.0517 and 22.6718 and 15.9842
cAMP accumulation response, normalized (concentration-response source data, single replicate values) (hTA1 I290Y; M = -5): 15.3564 and 19.3577 and 13.5096 and 22.3431 and 15.3808 and 18.6787 and 17.3474 and 21.8593 and 16.2195
cAMP accumulation response, normalized (concentration-response source data, single replicate values) (hTA1 I290Y; M = -5.522): 12.5863 and 17.5109 and 9.201 and 20.8774 and 14.2815 and 17.213 and 8.324 and 11.7076 and 15.0915
cAMP accumulation response, normalized (concentration-response source data, single replicate values) (hTA1 I290Y; M = -6): 6.738 and 15.972 and 11.3551 and 15.0144 and 31.5041 and 26.3739 and 8.324 and 3.812 and 11.7076
cAMP accumulation response, normalized (concentration-response source data, single replicate values) (hTA1 I290Y; M = -6.522): 9.508 and 11.6629 and 4.584 and 19.0452 and 19.7781 and 16.4801 and 8.324 (2×) and 15.0915
cAMP accumulation response, normalized (concentration-response source data, single replicate values) (hTA1 I290Y; M = -7): 5.199 and 18.1265 and 8.893 and 8.052 and 10.6171 and 15.0144 and 6.068 (2×) and 10.5796
cAMP accumulation response, normalized (concentration-response source data, single replicate values) (hTA1 I290Y; M = -7.522): 5.815 and 14.7408 and 3.6603 and 6.22 and 6.586 and 4.754 and 1.556 and -0.7002 and 0.4278
cAMP accumulation response, normalized (concentration-response source data, single replicate values) (hTA1 I290Y; M = -8): 4.584 and 6.738 and 6.43 and 5.853 and 4.388 and 1.823 and -2.956 and -1.828 and -0.7002
cAMP accumulation response, normalized (concentration-response source data, single replicate values) (hTA1 I290Y; M = -8.522): -1.264 and 1.506 and 0.8902 and -4.04 and -4.407 and 4.021 and -5.212 and -4.0841 and -2.956
cAMP accumulation response, normalized (concentration-response source data, single replicate values) (hTA1 I290Y; M = -9): -2.496 and -0.341 and -1.88 and -5.14 and -1.109 and 9.151 and -5.212 and -4.0841 and -2.956
cAMP accumulation response, normalized (concentration-response source data, single replicate values) (hTA1 I290Y; M = -9.522): -3.7267 and -1.264 and -2.803 and -1.475 and -4.407 and 4.388 and -4.0841 (2×) and -2.956
cAMP accumulation response, normalized (concentration-response source data, single replicate values) (hTA1 I290Y; M = -10): -2.188 (2×) and -0.6488 and -5.873 and -0.7424 and -6.239 and -2.956 (2×) and -1.828
cAMP accumulation response, normalized (concentration-response source data, single replicate values) (hTA1 I290Y; M = -10.522): -2.496
ΔpEC50 values (each mutant value - WT average), Mean (hTA1 F195T; F195T mutant minus WT average, Figure 5B): 0.04071 and 0.07112
Emax values, Mean (hTA1 F195T; F195T mutant, Figure 5B, β-PEA = 100, each row one independent experiment (3 replicates)): 86.6537
Emax (hTA1 F195T; F195T mutant, Figure 5B, β-PEA = 100, each row one independent experiment (3 replicates), read-out: Emax values, Mean): 67.7%
Emax (hTA1 F195T; F195T, n=2, read-out: Span ± SEM (Emax normalized to β-PEA)): 77.2 ± 9.48%
